# Measured values: US20230310432A1 (JULIUS-MAXIMILIANS-UNIVERSITÄT WÜRZBURG, priority 2017, published 2023)
# Like-named read-outs stand apart in the source and are kept apart here.
# What was measured:
# [1] = tested on: CD8+ T cells expressing a SLAMF7 CAR with CD28 costimulatory domain; experiment: Cytokine ELISA, co-culture with K562/SLAMF7; type: cell-based, human; settings: 20 h
# Experimental: (§1) Cytokine secretion: 5×10^4 T-cells were plated in duplicate or triplicate wells with target cells at an E:T ratio of 4:1 (K562/ROR1, K562/CD19, RCH-ACV), and IFN-γ and IL-2 were measured by ELISA, or cytokine panels were measured by multiplex cytokine immunoassay (Luminex) in supernatant removed after 20-h incubation. Specific cytokine production was calculated by subtracting the amount of cytokines released by unstimulated CAR-T cells from the amount of cytokines released after antigen-specific stimulation. The remaining cytokine secretion in % as shown in the diagrams is normalized to CAR-T cells in the absence of dasatinib-treatment (100%).
# (§2) The inventors prepared SLAMF7-specific CD8^+ and CD4^+ CAR-T cell lines from n=2 healthy donors. In each of the T-cell lines, the inventors enriched CAR-expressing T cells to >90% purity using the EGFRt-transduction marker. […] CAR-T cells were co-cultured with K562 that the inventors had transduced with SLAMF7. Dasatinib was added to the assay medium at the beginning of the co-culture assay. ELISA was performed to detect IFN-γ and IL-2 in supernatant removed from the co-culture.
# [2] = tested on: CD4+ T cells expressing a SLAMF7 CAR with CD28 costimulatory domain; experiment: Cytokine ELISA, co-culture with K562/SLAMF7; type: cell-based, human; settings: dasatinib 20 nM; 20 h
# Experimental: as §1, §2
# [3] = tested on: CD4+ T cells expressing a SLAMF7 CAR with 4-1BB costimulatory domain; experiment: Cytokine ELISA, co-culture with K562/SLAMF7; type: cell-based, human; settings: dasatinib ≥20 nM; 20 h
# Experimental: as §1, §2
# [4] = tested on: CD8+ T cells expressing a SLAMF7 CAR with 4-1BB costimulation; experiment: Cytokine ELISA, co-culture with K562/SLAMF7; type: cell-based, human; settings: 20 h
# Experimental: as §1, §2
# [5] = tested on: CD19 CAR/4-1BB-T cells; Raji tumor cells; experiment: Flow cytometry of tumor cells and human CAR-T cells in bone marrow and spleen, intermittent dasatinib; type: in vivo, NSG mice; settings: day 15
# Experimental: (§3) The Institutional Animal Care and Use Committee of UKW approved all mouse experiments. NOD.Cg-Prkdc^scidIl2rg^tm1wjl/SzJ (NSG) mice (female, 6-8 week old) were purchased from Charles River (Sulzfeld, Germany). Mice were inoculated with 1×10^6 Raji/ffluc_GFP tumor cells via tail vein injection (i.v.). Mice were treated with 5×10^6 CAR-modified or control untransduced T-cells (CD4:CD8 ratio=1:1) via tail vein injection (i.v.). […] Tumor burden and distribution was analyzed by serial bioluminescence imaging on an IVIS Lumina imager (Perkin Elmer, Baesweiler, Germany): mice received i.p. injections of 0.3 mg/g luciferin and images were acquired 10 minutes after luciferin injection in small binning mode at an acquisition time of 1 s to 1 min to obtain unsaturated images. Data were analyzed using LivingImage Software (Caliper) and the average radiance (or photon flux) analyzed in regions of interest that encompassed the entire body of each individual mouse. Mice were sacrificed at the end of the experiment and human T cells in bone marrow, peripheral blood and spleen were analyzed by flow cytometry. The presence of (human) cytokines in serum was measured using multiplex cytokine analysis.
# In brief, cohorts of 1-12 mice were inoculated with 1×10^6 firefly-luciferase_GFP-transduced Raji tumor cells on day 0. […] Serial bioluminescence imaging was performed to determine tumor burden on day 7, 9 and 15.
# On day 15, mice were sacrificed and peripheral blood (PB), bone marrow (BM) and spleen (SP) analyzed for the presence of human CAR-T cells by flow cytometry.
# [6] = tested on: NFAT-inducible GFP reporter gene in CD8+ CD19 CAR/4-1BB T cells; experiment: NFAT-inducible GFP reporter assay; type: cell-based, human; settings: 100 nM dasatinib; stimulation with Raji, 24 h; 1211 without dasatinib, 117 unstimulated
# Experimental: T cells (co-)expressing the NFAT inducible GFPwt reporter gene were co-cultured in the presence of 10 U IL-2 with irradiated (80 Gy) Raji or K562 tumor cells at an E:T ratio of 5:1 or without target cells. […] After 24 hours of co-culture, cells were labeled with anti-CD3 mAb, and analyzed by flow cytometry to assess GFP expression in T cells.
# The inventors prepared CD8^+ CD19 CAR/4-1BB T cells, that the inventors transduced to co-express an NFAT-inducible GFP reporter gene.
# [7] = tested on: CD8+ T cells expressing a CD19 CAR with 4-1BB costimulation; experiment: CFSE proliferation assay, co-culture with K562/CD19; type: cell-based, human; settings: 72 h
# [8] = tested on: activated CD19 CAR/4-1BB-T cells; type: in vivo, NSG mice
# [9] = tested on: CD8+ T cells expressing a CD19 CAR with CD28 costimulatory domain; experiment: Bioluminescence-based cytotoxicity assay, K562/CD19 target cells; type: cell-based, human
# [10] = tested on: CAR CD3 zeta at tyrosine 142; experiment: Quantitative Western blot of phosphorylation in CD8+ CD19 CAR/4-1BB T cells; type: cell-based, human; settings: 100 nM dasatinib; co-culture with RCH-ACV
# [11] = tested on: CD8+ T cells expressing a CD19 CAR with 4-1BB costimulation; experiment: Bioluminescence-based cytotoxicity assay, K562/CD19 target cells; type: cell-based, human; settings: dasatinib 100 nM added 1 hour after the start of the co-culture; t=10 hours; >90% without dasatinib
# CD19 CAR/4-1BB-T cells = experiment: Frequency of human T cells in bone marrow and peripheral blood by flow cytometry (Example 6); type: in vivo, NSG mice; settings: CAR/treated
# Experimental: as §3
# In brief, cohorts of n≥3 mice were inoculated with 1×10^6 firefly-luciferase_GFP-transduced Raji tumor cells on day 0, and on day 7 mice were treated with either CAR-transduced or control untransduced T cells. T-cell products consisted of equal proportions of CD4^+ and CD8^+ T cells (1:1 ratio), the total dose was 5×10^6 T cells.
# The inventors analyzed the presence of human T cells in bone marrow (BM), spleen (SP) and peripheral blood (PB) of mice, at d1 and d3 after T cell injection using flow cytometry. Live human T cells were identified as 7AAD^−, […] and CD4^+.
structure (smiles),measurement,setting,value
Cc1nc(Nc2ncc(C(=O)Nc3c(C)cccc3Cl)s2)cc(N2CCN(CCO)CC2)n1 [dasatinib],residual specific IFN-γ production,[1]; dasatinib ≥20 nM,less than 4%
same,residual specific IFN-γ production,[1]; dasatinib ≥40 nM,less than 0.2%
same,residual IFN-γ,[2],less than 1.2%
same,residual IFN-γ,[3],less than 0.5%
same,residual specific IFN-γ production,[4]; dasatinib 20 nM,less than 15%
same,residual specific IFN-γ production,[4]; dasatinib ≥40 nM,less than 0.8%
same,"percentage of human CAR-T cells, bone marrow","[5]; intermittent dasatinib, 1.9% without",7.3%
same,"percentage of human CAR-T cells, spleen","[5]; intermittent dasatinib, 3.2% without",6.9%
same,"remaining tumor burden, of all living cells in the bone marrow","[5]; one exemplary mouse, CAR-T cells and intermittent dasatinib, 58.8% CAR-T cells only",0.22%
same,mean fluorescence intensity (MFI) of GFP expression,[6],129
same,remaining proliferation,[7]; 0.1 μM dasatinib,< 5.6%
same,residual proliferation compared to non-dasatinib treated CAR-T cells,[7]; dasatinib ≥3.125 nM,less than 80%
same,residual proliferation compared to non-dasatinib treated CAR-T cells,[7]; dasatinib ≥12.5 nM,less than 45%
same,residual proliferation compared to non-dasatinib treated CAR-T cells,[7]; dasatinib ≥50 nM,less than 8%
same,serum level of IFN-γ,"[8]; day 12, CAR(ON/OFF/ON), 157 pg/ml in CAR(ON)",24 pg/mL
same,serum level of IFN-γ,"[8]; day 14, dasatinib discontinued",38 pg/mL
same,specific lysis of target cells,"[9]; dasatinib 50 nM, t=5 h, 52% by non-dasatinib treated",less than 23%
same,residual specific lysis of target cells,"[9]; dasatinib 50 nM, t=10 h, 91% by non-dasatinib treated",47%
same,specific lysis of target cells,"[9]; dasatinib 100 nM, any given time point, 91% by non-dasatinib treated at t=10 h",less than 10%
same,phosphorylation compared to CAR-T cells co-cultured in the absence of dasatinib,[10],12.86%
same,specific lysis,[11],34%
same,"frequency of human T cells, bone marrow","CD19 CAR/4-1BB-T cells; day 1, 0.099% CAR/untreated",0.087%
same,"frequency of human T cells, peripheral blood","CD19 CAR/4-1BB-T cells; day 1, […] CAR/untreated",0.19%
same,"frequency of CAR-T cells, bone marrow","CD19 CAR/4-1BB-T cells; day +3, 0.56% CAR/untreated",0.23%
same,"frequency of CAR-T cells, peripheral blood","CD19 CAR/4-1BB-T cells; day +3, 0.61% CAR/untreated",0.36%
